Assay results published in ChEMBL document CHEMBL3046846, “Synthesis of N-Alkyl-2, 3-dimethyl-5-[N-(5-halo-2-methylphenyl)carbamoyl]-6-pyrazinecarboxamides and Their Herbicidal Activity” (J Pestic Sci, 1997).

Legend:
Veronica persica [1] = test: Herbicidal activity against Veronica persica at 500 g/ha after 2 weeks; assay type: functional
Galium spurium [2] = test: Herbicidal activity against Galium spurium var. echinospermon (Wally.) Hayek at 500 g/ha after 2 weeks; assay type: functional
Xanthium strumarium [3] = test: Herbicidal activity against Xanthium strumarium (cocklebur) 500 g/ha after 2 weeks; assay type: functional
Abutilon theophrasti [4] = test: Herbicidal activity against Abutilon theophrasti (velvetleaf) at 500 g/ha after 2 weeks; assay type: functional
Avena fatua [5] = test: Herbicidal activity against Avena fatua at 500 g/ha after 2 weeks; assay type: functional
Echinochloa crus-galli [6] = test: Herbicidal activity against Echinochloa crus-galli (barnyard grass) at 500 g/ha after 2 weeks; assay type: functional
Glycine max [7] = test: Herbicidal activity against Glycine max (soybean) at 500 g/ha after 2 weeks; assay type: organism-based; details: in vivo, 336 h
Triticum aestivum [8] = test: Herbicidal activity against Triticum aestivum (wheat) at 500 g/ha after 2 weeks; assay type: ADME, organism-based; details: in vivo, 336 h
Veronica persica [9] = test: Herbicidal activity against Veronica persica at 250 g/ha after 2 weeks; assay type: functional
Galium spurium [10] = test: Herbicidal activity against Galium spurium var. echinospermon (Wally.) Hayek at 250 g/ha after 2 weeks; assay type: functional
Xanthium strumarium [11] = test: Herbicidal activity against Xanthium strumarium (cocklebur) 250 g/ha after 2 weeks; assay type: functional
Abutilon theophrasti [12] = test: Herbicidal activity against Abutilon theophrasti (velvetleaf) at 250 g/ha after 2 weeks; assay type: functional
Echinochloa crus-galli [13] = test: Herbicidal activity against Echinochloa crus-galli (barnyard grass) at 250 g/ha after 2 weeks; assay type: functional
Avena fatua [14] = test: Herbicidal activity against Avena fatua at 250 g/ha after 2 weeks; assay type: functional
Glycine max [15] = test: Herbicidal activity against Glycine max (soybean) at 250 g/ha after 2 weeks; assay type: organism-based; details: in vivo, 336 h
Triticum aestivum [16] = test: Herbicidal activity against Triticum aestivum (wheat) at 250 g/ha after 2 weeks; assay type: organism-based; details: in vivo, 336 h
Veronica persica [17] = test: Herbicidal activity against Veronica persica at 5000 g/ha after 2 weeks; assay type: functional
Galium spurium [18] = test: Herbicidal activity against Galium spurium var. echinospermon (Wally.) Hayek at 5000 g/ha after 2 weeks; assay type: functional
Xanthium strumarium [19] = test: Herbicidal activity against Xanthium strumarium (cocklebur) 5000 g/ha after 2 weeks; assay type: functional
Abutilon theophrasti [20] = test: Herbicidal activity against Abutilon theophrasti (velvetleaf) at 5000 g/ha after 2 weeks; assay type: functional
Echinochloa crus-galli [21] = test: Herbicidal activity against Echinochloa crus-galli (barnyard grass) at 5000 g/ha after 2 weeks; assay type: functional
Avena fatua [22] = test: Herbicidal activity against Avena fatua at 5000 g/ha after 2 weeks; assay type: functional
Glycine max [23] = test: Herbicidal activity against Glycine max (soybean) at 5000 g/ha after 2 weeks; assay type: organism-based; details: in vivo, 336 h
Triticum aestivum [24] = test: Herbicidal activity against Triticum aestivum (wheat) at 5000 g/ha after 2 weeks; assay type: ADME, organism-based; details: in vivo, 336 h

Row | Compound | Activity (Veronica persica [1]) | Activity (Galium spurium [2]) | Activity (Xanthium strumarium [3]) | Activity (Abutilon theophrasti [4]) | Activity (Avena fatua [5]) | Activity (Echinochloa crus-galli [6]) | Activity (Glycine max [7]) | Activity (Triticum aestivum [8]) | Activity (Veronica persica [9]) | Activity (Galium spurium [10]) | Activity (Xanthium strumarium [11]) | Activity (Abutilon theophrasti [12]) | Activity (Echinochloa crus-galli [13]) | Activity (Avena fatua [14]) | Activity (Glycine max [15]) | Activity (Triticum aestivum [16]) | Activity (Veronica persica [17]) | Activity (Galium spurium [18]) | Activity (Xanthium strumarium [19]) | Activity (Abutilon theophrasti [20]) | other results
1 | CCCCNC(=O)c1nc(C)c(C)nc1C(=O)Nc1cc(Cl)ccc1C | 50% | <10% | <10% | <10% | <10% | <10% | < 10% | < 10% | 10% | <10% | <10% | <10% | <10% | <10% | < 10% | < 10% | 95% | 30% | 50% | 95% | Activity (Echinochloa crus-galli [21]): 50%; Activity (Avena fatua [22]): <10%; Activity (Glycine max [23]): < 10%; Activity (Triticum aestivum [24]): 30%
2 | Cc1ccc(Cl)cc1NC(=O)c1nc(C)c(C)nc1C(=O)NCC(C)C | 95% | <10% | <10% | <10% | <10% | 30% | < 10% | < 10% | 30% | <10% | <10% | <10% | <10% | <10% | < 10% | < 10% | 95% | 95% | 95% | 95% | Activity (Echinochloa crus-galli [21]): 95%; Activity (Avena fatua [22]): 95%; Activity (Glycine max [23]): < 10%; Activity (Triticum aestivum [24]): 70%
3 | CC[C@@H](C)NC(=O)c1nc(C)c(C)nc1C(=O)Nc1cc(Cl)ccc1C | 95% | <10% | <10% | <10% | <10% | <10% | < 10% | < 10% | 70% | <10% | <10% | <10% | <10% | <10% | < 10% | < 10% | 95% | 95% | 95% | 95% | Activity (Echinochloa crus-galli [21]): 95%; Activity (Avena fatua [22]): 30%; Activity (Glycine max [23]): < 10%; Activity (Triticum aestivum [24]): 30%
4 | CC[C@H](C)NC(=O)c1nc(C)c(C)nc1C(=O)Nc1cc(Cl)ccc1C | 95% | <10% | <10% | <10% | <10% | <10% | < 10% | < 10% | 95% | <10% | <10% | <10% | <10% | <10% | < 10% | < 10% | 95% | 50% | 95% | 95% | Activity (Echinochloa crus-galli [21]): 95%; Activity (Avena fatua [22]): 30%; Activity (Glycine max [23]): < 10%; Activity (Triticum aestivum [24]): 30%
5 | Cc1ccc(Cl)cc1NC(=O)c1nc(C)c(C)nc1C(=O)NC(C)(C)C | 70% | <10% | <10% | <10% | <10% | <10% | < 10% | < 10% | 10% | <10% | <10% | <10% | <10% | <10% | < 10% | < 10% | 95% | 30% | 95% | 95% | Activity (Echinochloa crus-galli [21]): 70%; Activity (Avena fatua [22]): <10%; Activity (Glycine max [23]): < 10%; Activity (Triticum aestivum [24]): 10%
6 | CCCNC(=O)c1nc(C)c(C)nc1C(=O)Nc1cc(F)ccc1C | 95% | <10% | 95% | 30% | <10% | 10% | < 10% | < 10% | 95% | <10% | 30% | 30% | <10% | <10% | < 10% | < 10% | 95% | 95% | 95% | 95% | Activity (Echinochloa crus-galli [21]): 30%; Activity (Avena fatua [22]): 10%; Activity (Glycine max [23]): < 10%; Activity (Triticum aestivum [24]): 30%
7 | Cc1ccc(F)cc1NC(=O)c1nc(C)c(C)nc1C(=O)NC(C)C | 95% | <10% | 70% | 70% | 30% | 30% | < 10% | 10% | 70% | <10% | 10% | 50% | <10% | <10% | < 10% | < 10% | 95% | 70% | 70% | 50% | Activity (Echinochloa crus-galli [21]): 50%; Activity (Avena fatua [22]): 30%; Activity (Glycine max [23]): < 10%; Activity (Triticum aestivum [24]): 30%
8 | CCCCNC(=O)c1nc(C)c(C)nc1C(=O)Nc1cc(F)ccc1C | 95% | <10% | <10% | <10% | <10% | 10% | < 10% | 30% | 95% | <10% | <10% | <10% | <10% | <10% | < 10% | < 10% | 95% | 30% | 50% | 95% | Activity (Echinochloa crus-galli [21]): 70%; Activity (Avena fatua [22]): <10%; Activity (Glycine max [23]): < 10%; Activity (Triticum aestivum [24]): 30%
